Values joined by “and” are separate entries in the source; they are usually repeats but may differ in a detail not shown here. Identical values can stand only once.
Target: BACE-1 (mouse Protein, recombinant) (Mus musculus, UniProt P56818)
Assay: Nanotemper (Monolith NT.115) binding analysis

BACE-1 (mouse Protein, recombinant), sequence (P56818 46-457 limits assumed): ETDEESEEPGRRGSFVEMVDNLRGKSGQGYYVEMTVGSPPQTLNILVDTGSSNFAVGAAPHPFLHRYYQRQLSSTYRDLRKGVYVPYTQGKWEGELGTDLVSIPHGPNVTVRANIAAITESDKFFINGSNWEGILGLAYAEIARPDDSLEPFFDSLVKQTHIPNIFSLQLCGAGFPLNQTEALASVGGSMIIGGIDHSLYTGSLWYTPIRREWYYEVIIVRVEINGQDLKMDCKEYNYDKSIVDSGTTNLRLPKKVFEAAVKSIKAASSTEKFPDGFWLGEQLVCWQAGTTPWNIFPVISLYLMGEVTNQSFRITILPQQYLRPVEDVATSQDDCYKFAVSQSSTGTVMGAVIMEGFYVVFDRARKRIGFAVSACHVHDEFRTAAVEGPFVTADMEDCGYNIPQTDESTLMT

## C[C@@H](NC(=O)c1cc(C(=O)N[C@@H](Cc2ccccc2)[C@H](O)CNC2CC2)cc(N(C)S(=O)(=O)CCCNC(=O)c2ccc(C(=O)O)c(-c3c4ccc(=N)c(S(=O)(=O)O)c-4oc4c(S(=O)(=O)O)c(N)ccc34)c2)c1)c1ccccc1 [2-(6-Amino-3-iminio-4,5-disulfo-3H-xanthen-9-yl)-4-((3-(N-(3-(((2S,3R)-4-(cyclopropylamino)-3-hydroxy-1-phenylbutan-2-yl)carbamoyl)-5-(((R)-1-phenylethyl)carbamoyl)phenyl)-N-methylsulfamoyl)propyl)carbamoyl)benzoate]
  Kd: 1000 nM
BACE1 concentration 0.305 (unit not given; 0.3–5000 nM), triplicate
  fluorescence reading, single replicates: 995.235 and 994.451 and 995.188
BACE1 concentration 0.61, triplicate
  fluorescence reading, single replicates: 995.092 and 995.228 and 995.025
BACE1 concentration 1.221, triplicate
  fluorescence reading, single replicates: 995.123 and 995.217 and 995.055
BACE1 concentration 2.441, triplicate
  fluorescence reading, single replicates: 994.777 and 994.504 and 994.766
BACE1 concentration 4.883, triplicate
  fluorescence reading, single replicates: 994.407 and 994.774 and 995.083
BACE1 concentration 9.766, triplicate
  fluorescence reading, single replicates: 995.092 and 994.263 and 994.945
BACE1 concentration 19.531, triplicate
  fluorescence reading, single replicates: 994.925 and 994.824 and 995.417
BACE1 concentration 39.062, triplicate
  fluorescence reading, single replicates: 994.869 and 994.87 and 995.275
BACE1 concentration 78.125, triplicate
  fluorescence reading, single replicates: 995.397 and 995.08 and 995.109
BACE1 concentration 156.25, triplicate
  fluorescence reading, single replicates: 995.324 and 994.996 and 995.206
BACE1 concentration 312.5, triplicate
  fluorescence reading, single replicates: 995.935 and 995.418 and 995.988
BACE1 concentration 625, triplicate
  fluorescence reading, single replicates: 996.951 and 996.59 and 996.649
BACE1 concentration 1250, triplicate
  fluorescence reading, single replicates: 999.327 and 998.59 and 999.026
BACE1 concentration 2500, triplicate
  fluorescence reading, single replicates: 1002.784 and 1002.705 and 1002.138
BACE1 concentration 5000, triplicate
  fluorescence reading, single replicates: 1000.96 and 1001.179 and 1001.396
